Among the test systems are HCT-116 colon; OVCAR-8 ovarian; HS 578T breast; NCI/ADR-RES ovarian; DU-145 prostate; UACC-62 melanoma; SF-268 CNS; MDA-MB-435; HOP-92 NSCLC; T-47D breast; CCRF-CEM leukemia.
Experiment in all cases: NCI anticancer screen, dose series, 48 h

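Protocol summary: plate cells (96-well), add compound at 5 concentrations, incubate 48 h, interpolate endpoints linearly. At the TGI there is no net growth.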

Take `C/C=C\C(CC(=O)NCCc1cn(C(=O)OCc2ccccc2)c2ccccc12)CC(=O)OC` (centres undefined): the TGI with HCT-116 colon, in the assay on OVCAR-8 ovarian, in the assay on HS 578T breast, with NCI/ADR-RES ovarian, in the assay on DU-145 prostate and with UACC-62 melanoma was greater than 100 µM each time. In addition, the TGI with SF-268 CNS, in the assay on MDA-MB-435 and with HOP-92 NSCLC was greater than 100 µM each time.

`C[C@@H](O)C(=O)N1[C@@H]2CC3CC[C@]2(CS1(=O)=O)C3(C)C`: the TGI with HCT-116 colon, with OVCAR-8 ovarian, with T-47D breast, in the assay on NCI/ADR-RES ovarian, in the assay with DU-145 prostate and in the assay on UACC-62 melanoma was greater than 100 µM throughout. In addition, the TGI is greater than 100 µM with MDA-MB-435, 72.9 µM with CCRF-CEM leukemia and greater than 100 µM with HOP-92 NSCLC.

Take `COc1nc2c(c(=O)n1C)N[C@H]1[C@H](OC(C)=O)[C@@H](OC(C)=O)CO[C@H]1N2`: the TGI in the assay on HCT-116 colon, in the assay with OVCAR-8 ovarian, in the assay with T-47D breast, with HS 578T breast, in the assay with NCI/ADR-RES ovarian and with DU-145 prostate was greater than 100 µM throughout. Moreover, the TGI in the assay on UACC-62 melanoma, in the assay with SF-268 CNS, in the assay on MDA-MB-435 and in the assay with HOP-92 NSCLC was greater than 100 µM each time.

As to `CC1(C)OCC(C(O)C2OC(C)(C)OC2C=O)O1` (centres undefined), the TGI in the assay with HCT-116 colon, in the assay with OVCAR-8 ovarian, in the assay with HS 578T breast, in the assay on NCI/ADR-RES ovarian, with DU-145 prostate and in the assay on UACC-62 melanoma was greater than 100 µM in each case. For the same compound, the TGI with SF-268 CNS, with MDA-MB-435 and in the assay on CCRF-CEM leukemia was greater than 100 µM each time.

Regarding `Nc1cccc2c1C(=O)c1cccc(N)c1C2=O`, the TGI in the assay on HCT-116 colon, in the assay on OVCAR-8 ovarian, with UACC-62 melanoma, with SF-268 CNS, in the assay on CCRF-CEM leukemia and in the assay with HOP-92 NSCLC was greater than 100 µM in each case.

Regarding `Cn1nc2n(c1=O)CCCN2`, the TGI in the assay on HCT-116 colon, in the assay on OVCAR-8 ovarian, with HS 578T breast, in the assay with NCI/ADR-RES ovarian, with DU-145 prostate and in the assay with SF-268 CNS was greater than 100 µM each time. For the same compound, the TGI with MDA-MB-435, in the assay on CCRF-CEM leukemia and with HOP-92 NSCLC was greater than 100 µM throughout.

For `CN(C)c1nc(N(C)C)nc(N(C)C23CC4CC(CC(C4)C2)C3)n1`, the TGI in the assay with HCT-116 colon is 58.8 µM; with OVCAR-8 ovarian, greater than 100 µM; in the assay on T-47D breast it was greater than 100 µM; with NCI/ADR-RES ovarian, greater than 100 µM; in the assay on DU-145 prostate, greater than 100 µM; in the assay with UACC-62 melanoma, greater than 100 µM. Also, the TGI in the assay with SF-268 CNS was greater than 100 µM; with MDA-MB-435, greater than 100 µM; in the assay with CCRF-CEM leukemia, 66.6 µM; with HOP-92 NSCLC, 55.8 µM.

In the case of `CCOC(=O)C(=[N+]=[N-])C(=O)Nc1nn2nnnc2c2ccccc12`, the TGI in the assay on HCT-116 colon, with OVCAR-8 ovarian, in the assay on NCI/ADR-RES ovarian, in the assay on DU-145 prostate, in the assay with UACC-62 melanoma and in the assay with MDA-MB-435 was greater than 100 µM in each case. Also, the TGI in the assay on CCRF-CEM leukemia and in the assay on HOP-92 NSCLC was greater than 100 µM in each case.

On to `CC[N+]1(C)CCC(O)(/C=C/c2ccc(OC)cc2)C(C(=O)/C=C/c2ccc(OC)cc2)C1` (centres undefined), for which the TGI was greater than 48.3 µM with HCT-116 colon; greater than 56.2 µM with OVCAR-8 ovarian; 24.6 µM with T-47D breast; greater than 85 µM with HS 578T breast; greater than 60.8 µM in the assay on NCI/ADR-RES ovarian; 31.2 µM in the assay on DU-145 prostate. The TGI with UACC-62 melanoma is 43.8 µM; with SF-268 CNS it was greater than 59.7 µM; with MDA-MB-435, 28.2 µM; with HOP-92 NSCLC, 34.5 µM.

As for `Cc1nc2c3c(ncn2n1)Oc1c(c(-c2ccccc2)nn1-c1ccccc1)C3c1ccc(Cl)cc1` (centres undefined), the TGI in the assay on HCT-116 colon was greater than 100 µM; in the assay with OVCAR-8 ovarian, greater than 100 µM; with T-47D breast, greater than 100 µM; in the assay on HS 578T breast, 74.1 µM; in the assay with NCI/ADR-RES ovarian, greater than 100 µM; with DU-145 prostate, greater than 100 µM. In addition, the TGI with UACC-62 melanoma, in the assay with SF-268 CNS, in the assay on MDA-MB-435 and in the assay with HOP-92 NSCLC was greater than 100 µM throughout.

On to `CC(C)=CCC[C@@H](C)C1=C(Nc2ccccc2Cl)C(O)=C(C)C(=O)C1=O`, for which the TGI with HCT-116 colon was greater than 43.7 µM; with OVCAR-8 ovarian, 9.09 µM; with T-47D breast it was 34.1 µM; in the assay on HS 578T breast, 13.1 µM; in the assay with NCI/ADR-RES ovarian, 27.1 µM; in the assay on DU-145 prostate, 29.3 µM. In addition, the TGI was 18 µM with UACC-62 melanoma, 20.2 µM with SF-268 CNS, 36.1 µM in the assay on MDA-MB-435 and 29.3 µM in the assay on HOP-92 NSCLC.

With `CC(=O)OCC1OC(n2c3c(c(-c4cccc5ccccc45)c(C#N)c2=S)CCCC3)C(OC(C)=O)C(OC(C)=O)C1OC(C)=O` (centres undefined), the TGI in the assay on HCT-116 colon, with OVCAR-8 ovarian, in the assay with T-47D breast, with NCI/ADR-RES ovarian, in the assay with DU-145 prostate and in the assay with UACC-62 melanoma was greater than 100 µM in each case. Moreover, the TGI with SF-268 CNS, in the assay with MDA-MB-435, in the assay with CCRF-CEM leukemia and in the assay on HOP-92 NSCLC was greater than 100 µM in each case.

`C/C(=C\c1ccccn1)c1ccccn1`: the TGI in the assay on HCT-116 colon, in the assay on OVCAR-8 ovarian, in the assay with HS 578T breast, in the assay with NCI/ADR-RES ovarian, in the assay with DU-145 prostate and in the assay on UACC-62 melanoma was greater than 100 µM in each case. For the same compound, the TGI with SF-268 CNS, in the assay on MDA-MB-435 and with HOP-92 NSCLC was greater than 100 µM in each case.

`COC(=O)C1CCC(=O)N1C(=O)Cc1ccc(OC)cc1` (centres undefined): the TGI with HCT-116 colon, in the assay on OVCAR-8 ovarian, with UACC-62 melanoma, in the assay with SF-268 CNS and in the assay on HOP-92 NSCLC was greater than 100 µM each time.

Take `c1ccc(CCN2CCc3[nH]c4ccccc4c3C2)cc1`: the TGI in the assay on HCT-116 colon was 28.7 µM; in the assay with OVCAR-8 ovarian, 44.7 µM; in the assay with T-47D breast it was 51.5 µM; with NCI/ADR-RES ovarian, 36.9 µM; in the assay with DU-145 prostate it was greater than 100 µM; in the assay on UACC-62 melanoma, greater than 10 µM. For the same compound, the TGI with SF-268 CNS was greater than 100 µM; in the assay with MDA-MB-435, 36 µM; in the assay with CCRF-CEM leukemia, greater than 100 µM; in the assay on HOP-92 NSCLC, 34.6 µM.

The values are drawn from PubChem BioAssay (NCI).
